Where two headings read alike, the source gives them in different places.
Tests used:
human TTK = molecular target: T1, human TTK (Homo sapiens, UniProt P33981); test: TTK inhibition assay (indirect ELISA); assay type: biochemical; conditions: read-out: TTK IC50 Range
T1 construct: amino terminal GST fusion of full length human TTK; purchased Invitrogen
T1 sequence (P33981 1-857): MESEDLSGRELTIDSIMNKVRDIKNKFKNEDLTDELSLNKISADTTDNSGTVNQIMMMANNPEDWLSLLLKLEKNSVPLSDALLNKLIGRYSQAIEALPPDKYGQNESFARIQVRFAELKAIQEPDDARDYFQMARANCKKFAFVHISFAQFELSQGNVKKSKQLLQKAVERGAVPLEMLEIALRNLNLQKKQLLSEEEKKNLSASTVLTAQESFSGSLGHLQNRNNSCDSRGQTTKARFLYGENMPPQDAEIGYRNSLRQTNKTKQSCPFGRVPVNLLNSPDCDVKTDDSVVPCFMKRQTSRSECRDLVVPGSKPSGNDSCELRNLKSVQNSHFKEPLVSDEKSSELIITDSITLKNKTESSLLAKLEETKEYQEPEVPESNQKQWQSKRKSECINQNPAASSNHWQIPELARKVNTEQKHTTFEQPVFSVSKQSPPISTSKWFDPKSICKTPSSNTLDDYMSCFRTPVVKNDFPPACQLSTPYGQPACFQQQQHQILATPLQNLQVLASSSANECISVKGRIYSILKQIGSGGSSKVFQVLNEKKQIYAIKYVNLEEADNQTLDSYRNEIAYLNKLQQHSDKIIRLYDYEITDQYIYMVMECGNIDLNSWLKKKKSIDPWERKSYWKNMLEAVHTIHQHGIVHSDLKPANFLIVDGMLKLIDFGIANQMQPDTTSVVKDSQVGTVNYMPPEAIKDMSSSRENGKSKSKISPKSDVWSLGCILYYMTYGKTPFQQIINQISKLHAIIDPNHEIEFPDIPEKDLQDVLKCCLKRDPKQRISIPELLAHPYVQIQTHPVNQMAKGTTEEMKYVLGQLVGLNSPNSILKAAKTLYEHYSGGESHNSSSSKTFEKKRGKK

[1] = system: colon cancer cells (HCT116); test: Cancer cell line growth inhibition (SRB assay); assay type: cell-based; conditions: read-out: Cancer Cell Line GI50 Range HCT116
[2] = system: ovarian cancer cells (PA-1); test: Cancer cell line growth inhibition (SRB assay); assay type: cell-based; conditions: PA-1, read-out: Cancer Cell Line GI50 Range PA-1

IC50 (human TTK) [nM]	GI50 ([1]; Homo sapiens, HCT-116) [nM]	GI50 ([2]; Homo sapiens) [nM]	Compound	GI50 ([1]; HCT116) [nM]	GI50 [2] [nM]
< 100	< 100	< 100	CC(C)CC(NC(=O)c1ccc2[nH]nc(-c3ccc(OC4CCN(C5COC5)CC4)cc3)c2c1)c1ccccn1 (stereo not drawn) [Example A291, N-(3-methyl-1-(pyridin-2-yl)butyl)-3-(4-((1-(oxetan-3-yl)piperidin-4-yl)oxy)phenyl)-1H-indazole-5-carboxamide]		
< 100	100 to 500	100 to 500	O=C(NC(c1ccccn1)C1CCOCC1)c1ccc2[nH]nc(-c3ccc(OC4CCN(C5COC5)CC4)cc3)c2c1 (stereo not drawn) [Example A293, 3-(4-((1-(oxetan-3-yl)piperidin-4-yl)oxy)phenyl)-N-(pyridin-2-yl(tetrahydro-2H-pyran-4-yl)methyl)-1H-indazole-5-carboxamide]		
< 100	100 to 500	100 to 500	CC(C)[C@H](NC(=O)c1ccc2[nH]nc(-c3ccc(OC4CCN(C5COC5)CC4)nc3)c2c1)c1ccccc1Cl [Example A294, (S)-N-(1-(2-chlorophenyl)-2-methylpropyl)-3-(6-((1-(oxetan-3-yl)piperidin-4-yl)oxy)pyridin-3-yl)-1H-indazole-5-carboxamide]		
< 100	100 to 500	< 100	O=C(NC(c1ccccn1)C1CCCC1)c1ccc2[nH]nc(-c3ccc(OC4CCN(C5COC5)CC4)cc3)c2c1 (stereo not drawn) [Example A319, N-(cyclopentyl(pyridin-2-yl)methyl)-3-(4-((1-(oxetan-3-yl)piperidin-4-yl)oxy)phenyl)-1H-indazole-5-carboxamide]		
< 100	< 100	< 100	CC(C)C(NC(=O)c1ccc2[nH]nc(-c3ccc(OC4CCN(C5COC5)CC4)cc3)c2c1)c1ccccn1 (stereo not drawn) [Example A327, N-(2-methyl-1-(pyridin-2-yl)propyl)-3-(4-((1-(oxetan-3-yl)piperidin-4-yl)oxy)phenyl)-1H-indazole-5-carboxamide]		
< 100	< 100	< 100	O=CN1CCC(Oc2ccc(-c3n[nH]c4ccc(C(=O)NC(c5ccsc5)C5CCC5)cc34)cc2)CC1 (stereo not drawn) [Example A330, N-(cyclobutyl(thiophen-3-yl)methyl)-3-(4-((1-formylpiperidin-4-yl)oxy)phenyl)-1H-indazole-5-carboxamide]		
< 100	< 100	< 100	CC(C)(O)C1CCN(c2ccc(-c3n[nH]c4ccc(C(=O)N[C@H](c5ccccn5)C5CC5)cc34)cc2)CC1 [Example A351, (S)-N-(cyclopropyl(pyridin-2-yl)methyl)-3-(4-(4-(2-hydroxypropan-2-yl)piperidin-1-yl)phenyl)-1H-indazole-5-carboxamide]		
< 100	100 to 500	100 to 500	C[C@H](O)C(=O)N1CCC(Oc2ccc(-c3n[nH]c4ccc(C(=O)N[C@H](c5ccccc5)C5CC5)cc34)cc2)CC1 [Example A377, N-((S)-cyclopropyl(phenyl)methyl)-3-(4-((1-((S)-2-hydroxypropanoyl)piperidin-4-yl)oxy)phenyl)-1H-indazole-5-carboxamide]		
< 100	100 to 500	100 to 500	CC(C)(O)C(=O)N1CCC(Oc2ccc(-c3n[nH]c4ccc(C(=O)N[C@H](c5ccccc5)C5CC5)cc34)cc2)CC1 [Example A381, (S)-N-(cyclopropyl(phenyl)methyl)-3-(4-((1-(2-hydroxy-2-methylpropanoyl)piperidin-4-yl)oxy)phenyl)-1H-indazole-5-carboxamide]		
< 100	< 100	< 100	O=C(N[C@H](c1ccccc1)C1CC1)c1ccc2[nH]nc(-c3ccc(OC4CCN(C(=O)CO)CC4)cc3)c2c1 [Example A382, (S)-N-(cyclopropyl(phenyl)methyl)-3-(4-((1-(2-hydroxyacetyl)piperidin-4-yl)oxy)phenyl)-1H-indazole-5-carboxamide]		
< 100	100 to 500	100 to 500	O=C(NC(c1ccccn1)C1CC1)c1ccc2[nH]nc(-c3ccc(N4CCOCC4)cc3)c2c1 (stereo not drawn) [Example A383, N-(cyclopropyl(pyridin-2-yl)methyl)-3-(4-morpholinophenyl)-1H-indazole-5-carboxamide]		
< 100	100 to 500	100 to 500	O=C(NC(c1ccccn1)C1CC1)c1ccc2[nH]nc(-c3ccc(N4CCN(CCO)CC4)cc3)c2c1 (stereo not drawn) [Example A384, N-(cyclopropyl(pyridin-2-yl)methyl)-3-(4-(4-(2-hydroxyethyl)piperazin-1-yl)phenyl)-1H-indazole-5-carboxamide]		
< 100	< 100	100 to 500	O=C(N[C@H](c1ccccc1)C1CC1)c1ccc2[nH]nc(-c3ccc(N4CCN(C5COC5)CC4)cc3)c2c1 [Example A399, (S)-N-(cyclopropyl(phenyl)methyl)-3-(4-(4-(oxetan-3-yl)piperazin-1-yl)phenyl)-1H-indazole-5-carboxamide]		
< 100	< 100	< 100	O=C(N[C@H](c1ccccn1)C1CC1)c1ccc2[nH]nc(-c3ccc(N4CCN(C5COC5)CC4)cc3)c2c1 [Example A401, (S)-N-(cyclopropyl(pyridin-2-yl)methyl)-3-(4-(4-(oxetan-3-yl)piperazin-1-yl)phenyl)-1H-indazole-5-carboxamide]		
< 100	> 500	> 500	CCC(CNC(=O)c1ccc2[nH]nc(-c3ccc(N4CCOCC4)cc3)c2c1)c1ccccc1 (stereo not drawn) [Example A407, 3-(4-morpholinophenyl)-N-(2-phenylbutyl)-1H-indazole-5-carboxamide]		

Compound	IC50 (human TTK) [nM]	GI50 ([1]; Homo sapiens, HCT-116) [nM]	GI50 ([2]; Homo sapiens) [nM]	GI50 ([1]; HCT116) [nM]	GI50 [2] [nM]
O=C(N[C@@H](c1ccccn1)C1CC1)c1ccc2[nH]nc(-c3ccc(OC4CC5CCC(C4)N5C4COC4)cc3)c2c1 (stereo partly drawn) [Example A352, N-((R)-cyclopropyl(pyridin-2-yl)methyl)-3-(4-(((1R,3R,5S)-8-(oxetan-3-yl)-8-azabicyclo[3.2.1]octan-3-yl)oxy)phenyl)-1H-indazole-5-carboxamide]	< 100	100 to 500	100 to 500		
O=CN1C2CCC1CC(Oc1ccc(-c3n[nH]c4ccc(C(=O)N[C@@H](c5ccccn5)C5CC5)cc34)cc1)C2 (stereo partly drawn) [Example A353, N-((R)-cyclopropyl(pyridin-2-yl)methyl)-3-(4-(((1R,3R,5S)-8-formyl-8-azabicyclo[3.2.1]octan-3-yl)oxy)phenyl)-1H-indazole-5-carboxamide]	< 100	< 100	< 100		
CN1C2COCC1CC(Oc1ccc(-c3n[nH]c4ccc(C(=O)N[C@H](c5ccccn5)C5CC5)cc34)cc1)C2 (stereo partly drawn) [Example A389, N-((S)-cyclopropyl(pyridin-2-yl)methyl)-3-(4-(((1R,5S,7s)-9-methyl-3-oxa-9-azabicyclo[3.3.1]nonan-7-yl)oxy)phenyl)-1H-indazole-5-carboxamide]	< 100	< 100	< 100		
CN1C2COCC1CC(Oc1ccc(-c3n[nH]c4ccc(C(=O)NC(c5ccccn5)C5CCCC5)cc34)cc1)C2 [Example A392, N-(cyclopentyl (pyridin-2-yl)methyl)-3-(4-(((1R,5S,7s)-9-methyl-3-oxa-9-azabicyclo [3.3.1]nonan-7-yl)oxy)phenyl)-1H-indazole-5-carboxamide]	< 100	< 100	< 100		
CC(C)C(NC(=O)c1ccc2[nH]nc(-c3ccc(OC4CC5COCC(C4)N5C)cc3)c2c1)c1ccccc1Cl [Example A393, N-(1-(2-chlorophenyl)-2-mcthylpropyl)-3-(4-(((1R,5S,7s)-9-methy]-3-oxa-9-azabicyclo[3.3.1]nonan-7-yl)oxy)phenyl)-1H-indazole-5-carboxamide]	< 100	< 100	< 100		
CC(C)C(NC(=O)c1ccc2[nH]nc(-c3ccc(OC4CC5CCC(C4)N5C)cc3)c2c1)c1ccccn1 (stereo not drawn) [Example A396, N-(2-methyl-1-(pyridin-2-yl)propyl)-3-(4-((8-methyl-8-azabicyclo [3.2.1]octan-3-yl)oxy)phenyl)-1H-indazole-5-carboxamide]	< 100			< 100	< 100
CN1C2CCC1CC(Oc1ccc(-c3n[nH]c4ccc(C(=O)N[C@H](c5ccccn5)C5CC5)cc34)cc1)C2 (stereo partly drawn) [Example A397, N-((S)-cyclopropyl(pyridin-2-yl)methyl)-3-(4-((8-methyl-8-azabicyclo[3.2.1]octan-3-yl)oxy)phenyl)-1H-indazole-5-carboxamide]	< 100	< 100	< 100		

Source: patent publication US9580390B2, “Indazole compounds as kinase inhibitors and method of treating cancer with same” (University Health Network, priority 2011, dated 2017)
